# Tests used:
# [1] = biological target: T1, BA/F3-FLT3-ITD + D835Y (Homo sapiens, UniProt P36888, D835Y, cells depend on it, form not given); test: Engineered BA/F3 cell growth assay, FLT3 ITD/D835Y; format: cell-based, murine; conditions: 3 d growth
# T1 sequence (P36888 with tags, fused parts or gaps INS600HVDFREYEYD/D835Y): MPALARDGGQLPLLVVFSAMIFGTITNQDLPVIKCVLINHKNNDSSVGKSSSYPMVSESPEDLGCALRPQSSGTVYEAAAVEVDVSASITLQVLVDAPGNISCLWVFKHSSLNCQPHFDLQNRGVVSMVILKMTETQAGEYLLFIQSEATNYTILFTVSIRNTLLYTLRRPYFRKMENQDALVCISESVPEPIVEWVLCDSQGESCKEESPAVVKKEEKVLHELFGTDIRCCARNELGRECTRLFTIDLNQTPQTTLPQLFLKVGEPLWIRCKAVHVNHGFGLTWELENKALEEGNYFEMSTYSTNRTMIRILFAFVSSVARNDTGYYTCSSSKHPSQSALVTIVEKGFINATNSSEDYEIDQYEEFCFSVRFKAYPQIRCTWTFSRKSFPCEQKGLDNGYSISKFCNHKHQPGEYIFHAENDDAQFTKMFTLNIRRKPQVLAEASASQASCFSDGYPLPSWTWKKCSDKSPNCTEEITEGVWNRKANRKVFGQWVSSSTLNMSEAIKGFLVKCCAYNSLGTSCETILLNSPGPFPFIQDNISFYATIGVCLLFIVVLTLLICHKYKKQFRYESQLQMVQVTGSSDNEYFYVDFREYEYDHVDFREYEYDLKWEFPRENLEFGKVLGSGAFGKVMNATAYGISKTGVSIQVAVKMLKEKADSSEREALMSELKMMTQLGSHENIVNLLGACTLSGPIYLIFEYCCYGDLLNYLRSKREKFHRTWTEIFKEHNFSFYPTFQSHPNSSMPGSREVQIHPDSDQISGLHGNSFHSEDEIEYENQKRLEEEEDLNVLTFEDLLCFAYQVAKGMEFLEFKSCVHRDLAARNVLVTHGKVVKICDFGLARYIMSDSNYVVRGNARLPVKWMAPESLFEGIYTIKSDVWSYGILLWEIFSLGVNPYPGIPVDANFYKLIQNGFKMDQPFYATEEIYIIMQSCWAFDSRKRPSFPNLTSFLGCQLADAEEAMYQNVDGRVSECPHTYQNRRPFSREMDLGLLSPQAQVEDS
# How it was run: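 IC50 derived from CellTiter-Glo ATP luminescence after 3 days at 37 °C, 5% CO2, over eight 1:3 dilutions from 1 μM (0.2% DMSO final). Cells: IL-3-independent murine Ba/F3 expressing full-length FLT3 ITD/D835Y, 1×10^4 per well.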
# [2] = biological target: CSF1R (Homo sapiens, UniProt P07333); test: CSF1R 100 ATP 8 pt kinase assay (Table 6); format: biochemical
# Sequence of CSF1R (P07333 20-972, species assumed): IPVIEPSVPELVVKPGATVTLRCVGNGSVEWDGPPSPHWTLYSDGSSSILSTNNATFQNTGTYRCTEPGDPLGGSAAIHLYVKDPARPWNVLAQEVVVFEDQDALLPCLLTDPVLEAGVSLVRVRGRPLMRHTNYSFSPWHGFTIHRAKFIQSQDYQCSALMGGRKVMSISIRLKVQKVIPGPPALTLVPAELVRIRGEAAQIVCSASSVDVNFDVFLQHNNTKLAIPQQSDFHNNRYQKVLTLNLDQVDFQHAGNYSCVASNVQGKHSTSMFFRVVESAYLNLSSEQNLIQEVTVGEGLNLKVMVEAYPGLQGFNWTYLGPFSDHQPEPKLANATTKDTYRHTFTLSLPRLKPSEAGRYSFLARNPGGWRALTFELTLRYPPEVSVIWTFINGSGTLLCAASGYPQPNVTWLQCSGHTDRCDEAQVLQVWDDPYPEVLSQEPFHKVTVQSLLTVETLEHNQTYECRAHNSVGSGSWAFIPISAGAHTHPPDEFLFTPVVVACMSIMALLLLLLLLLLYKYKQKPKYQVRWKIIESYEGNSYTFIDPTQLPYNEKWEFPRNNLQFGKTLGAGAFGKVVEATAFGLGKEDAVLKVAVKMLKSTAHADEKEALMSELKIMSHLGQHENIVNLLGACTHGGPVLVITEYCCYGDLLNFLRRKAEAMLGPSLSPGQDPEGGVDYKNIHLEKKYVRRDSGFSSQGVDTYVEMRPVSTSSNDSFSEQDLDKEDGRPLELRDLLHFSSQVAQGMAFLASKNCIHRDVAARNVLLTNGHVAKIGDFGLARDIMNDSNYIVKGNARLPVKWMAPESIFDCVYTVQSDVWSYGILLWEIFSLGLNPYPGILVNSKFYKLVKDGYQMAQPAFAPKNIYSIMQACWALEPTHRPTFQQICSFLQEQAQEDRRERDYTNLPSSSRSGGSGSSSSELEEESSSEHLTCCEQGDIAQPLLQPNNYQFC
# Text: The following Table 6 provides data indicating FLT3 ITD, D835Y and F691L; c-KIT and CSF1R biochemical and/or cell inhibitory activity for exemplary compounds as described herein.
# [3] = system: MOLM-14 D835Y (endogenous FLT3 ITD and transfected FLT3 D835Y); test: MOLM-14 D835Y cell proliferation assay (CellTiter-Glo); format: cell-based; conditions: Homo sapiens, MOLM-14, 72 h; 3 d growth, GMean
# How it was run: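 Three-day proliferation at 37 °C/5% CO2 of FLT3-ITD MOLM-14 lines with D835Y or F691L mutation, seeded 1×10^4 per well. Compounds at eight points, top 1 μM final, 0.2% DMSO. ATP luminescence (CellTiter-Glo) gives IC50.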
Structure (SMILES),GI50 [1],IC50 [2],IC50 [3]
"COCCn1cc(Nc2ncc(-c3ccc(CC(=O)Nc4cnc(Cl)c(C(F)(F)F)c4)c(F)c3)cn2)cn1 [Compound P-0266, N-[6-chloro-5-(trifluoromethyl)-3-pyridyl]-2-[2-fluoro-4-[2-[[1-(2-methoxyethyl)pyrazol-4-yl]amino]pyrimidin-5-yl]phenyl]acetamide]",0.0001 to 10 µM,–,0.0001 to 10 µM
"COCCn1cc(Nc2ncc(-c3ccc(CC(=O)Nc4cncc(C(F)(F)F)c4)c(F)c3)cn2)cn1 [Compound P-0267, 2-[2-fluoro-4-[2-[[1-(2-methoxyethyl)pyrazol-4-yl]amino]pyrimidin-5-yl]phenyl]-N-[5-(trifluoromethyl)-3-pyridyl]acetamide]",0.0001 to 10 µM,–,0.0001 to 10 µM
"COCCn1cc(Nc2ncc(-c3ccc(CC(=O)Nc4ccc(C(F)(F)F)nc4)c(F)c3)cn2)cn1 [Compound P-0268, 2-[2-fluoro-4-[2-[[1-(2-methoxyethyl)pyrazol-4-yl]amino]pyrimidin-5-yl]phenyl]-N-[6-(trifluoromethyl)-3-pyridyl]acetamide]",0.0001 to 10 µM,–,0.0001 to 10 µM
"COCCn1cc(Nc2ncc(-c3ccc(CC(=O)Nc4ccc(C(F)(F)F)cn4)c(F)c3)cn2)cn1 [Compound P-0269, 2-[2-fluoro-4-[2-[[1-(2-methoxyethyl)pyrazol-4-yl]amino]pyrimidin-5-yl]phenyl]-N-[5-(trifluoromethyl)-2-pyridyl]acetamide]",0.0001 to 10 µM,–,0.0001 to 10 µM
"COCCn1cc(Nc2ncc(-c3ccc(CC(=O)Nc4cc(C(F)(F)F)ccn4)c(F)c3)cn2)cn1 [Compound P-0270, 2-[2-fluoro-4-[2-[[1-(2-methoxyethyl)pyrazol-4-yl]amino]pyrimidin-5-yl]phenyl]-N-[4-(trifluoromethyl)-2-pyridyl]acetamide]",0.0001 to 10 µM,–,0.0001 to 10 µM
"COCCn1cc(Nc2ncc(-c3ccc(CC(=O)Nc4ccc(C(F)(F)F)nc4)cc3)cn2)cn1 [Compound P-0273, 2-[4-[2-[[1-(2-methoxyethyl)pyrazol-4-yl]amino]pyrimidin-5-yl]phenyl]-N-[6-(trifluoromethyl)-3-pyridyl]acetamide]",0.0001 to 10 µM,–,0.0001 to 10 µM
"COCCn1cc(Nc2ncc(-c3ccc(CC(=O)Nc4ccc(C(F)(F)F)cn4)cc3)cn2)cn1 [Compound P-0274, 2-[4-[2-[[1-(2-methoxyethyl)pyrazol-4-yl]amino]pyrimidin-5-yl]phenyl]-N-[5-(trifluoromethyl)-2-pyridyl]acetamide]",0.0001 to 10 µM,–,0.0001 to 10 µM

# Continued, values first:
GI50 [1],IC50 [2],IC50 [3],Structure (SMILES)
0.0001 to 10 µM,0.0001 to 10 µM,0.0001 to 10 µM,"COc1ncc(NC(=O)Cc2ccc(-c3cnc4[nH]nc(OC)c4c3)cc2)cc1C(F)(F)F [Compound P-0212, 2-[4-(3-methoxy-1H-pyrazolo[3,4-b]pyridin-5-yl)phenyl]-N-[6-methoxy-5-(trifluoromethyl)-3-pyridyl]acetamide]"
0.0001 to 10 µM,0.0001 to 10 µM,0.0001 to 10 µM,"CCOc1n[nH]c2ncc(-c3ccc(CC(=O)Nc4cnc(OC)c(C(F)(F)F)c4)cc3)cc12 [Compound P-0213, 2-(4-(3-ethoxy-1H-pyrazolo[3,4-b]pyridin-5-yl)phenyl)-N-(6-methoxy-5-(trifluoromethyl)pyridin-3-yl)acetamide]"
0.0001 to 10 µM,0.0001 to 10 µM,0.0001 to 10 µM,"COc1ncc(NC(=O)Cc2ccc(-c3cnc4[nH]nc(NC(=O)C(F)(F)F)c4c3)cc2)cc1C(F)(F)F [Compound P-0215, 2,2,2-trifluoro-N-[5-[4-[2-[[6-methoxy-5-(trifluoromethyl)-3-pyridyl]amino]-2-oxo-ethyl]phenyl]-1H-pyrazolo[3,4-b]pyridin-3-yl]acetamide]"
0.0001 to 10 µM,0.0001 to 10 µM,0.0001 to 10 µM,"COc1ncc(NC(=O)Cc2ccc(-c3cnc4[nH]nc(N)c4c3)cc2)cc1C(F)(F)F [Compound P-0216, 2-(4-(3-amino-1H-pyrazolo[3,4-b]pyridin-5-yl)phenyl)-N-(6-methoxy-5-(trifluoromethyl)pyridin-3-yl)acetamide]"
0.0001 to 10 µM,0.0001 to 10 µM,0.0001 to 10 µM,"CCOc1n[nH]c2ncc(-c3ccc(CC(=O)Nc4cnc(C)c(C(F)(F)F)c4)cc3)cc12 [Compound P-0217, 2-[4-(3-ethoxy-1H-pyrazolo[3,4-b]pyridin-5-yl)phenyl]-N-[6-methyl-5-(trifluoromethyl)-3-pyridyl]acetamide]"
0.0001 to 10 µM,0.0001 to 10 µM,0.0001 to 10 µM,"COc1n[nH]c2ncc(-c3ccc(CC(=O)Nc4cnc(C)c(C(F)(F)F)c4)cc3)cc12 [Compound P-0218, 2-[4-(3-methoxy-1H-pyrazolo[3,4-b]pyridin-5-yl)phenyl]-N-[6-methyl-5-(trifluoromethyl)-3-pyridyl]acetamide]"
0.0001 to 10 µM,0.0001 to 10 µM,0.0001 to 10 µM,"Cc1ncc(NC(=O)Cc2ccc(-c3cnc4[nH]c(C#CC(C)(C)O)cc4c3)cc2)cc1C(F)(F)F [Compound P-0220, 2-[4-[2-(3-hydroxy-3-methyl-but-1-ynyl)-1H-pyrrolo[2,3-b]pyridin-5-yl]phenyl]-N-[6-methyl-5-(trifluoromethyl)-3-pyridyl]acetamide]"
0.0001 to 10 µM,0.0001 to 10 µM,0.0001 to 10 µM,"COc1ncc(NC(=O)Cc2ccc(-c3cnc4[nH]nc(Cl)c4c3)cc2)cc1C(F)(F)F [Compound P-0230, 2-[4-(3-chloro-1H-pyrazolo[3,4-b]pyridin-5-yl)phenyl]-N-[6-methoxy-5-(trifluoromethyl)-3-pyridyl]acetamide]"
0.0001 to 10 µM,–,0.0001 to 10 µM,"COCCn1cc(Nc2ncc(-c3ccc(CC(=O)Nc4cnc(OC)c(C(F)(F)F)c4)cc3)cn2)cn1 [Compound P-0271, 2-[4-[2-[[1-(2-methoxyethyl)pyrazol-4-yl]amino]pyrimidin-5-yl]phenyl]-N-[6-methoxy-5-(trifluoromethyl)-3-pyridyl]acetamide]"

# — patent publication US10160747B2, “Compounds and methods for kinase modulation, and indications therefor” (Plexxikon Inc., priority 2016, dated 2018)
